Where two headings read alike, the source gives them in different places. Square brackets hold non-standard residues; d marks the D form. Primed or numbered codes have the meaning given here. Ends that are not written are not given here. Peptide text beside a SMILES is read from it. Gla′ = gamma-carboxyglutamate (g in names)
How the values were obtained:
NMDA receptor [1] = molecular target: T1, NMDA receptor (Rattus norvegicus, UniProt P35439+Q00960); assay: biochemical; assay type: binding
T1 construct: other: test compound in the absence of spermine; concentration at 50% of maximum stimulation; % Sti; spermine = 100; other: with and without spermine; absence of spermine; % STI; absence
T1 sequence (Q00960 27-1482, other chains not shown): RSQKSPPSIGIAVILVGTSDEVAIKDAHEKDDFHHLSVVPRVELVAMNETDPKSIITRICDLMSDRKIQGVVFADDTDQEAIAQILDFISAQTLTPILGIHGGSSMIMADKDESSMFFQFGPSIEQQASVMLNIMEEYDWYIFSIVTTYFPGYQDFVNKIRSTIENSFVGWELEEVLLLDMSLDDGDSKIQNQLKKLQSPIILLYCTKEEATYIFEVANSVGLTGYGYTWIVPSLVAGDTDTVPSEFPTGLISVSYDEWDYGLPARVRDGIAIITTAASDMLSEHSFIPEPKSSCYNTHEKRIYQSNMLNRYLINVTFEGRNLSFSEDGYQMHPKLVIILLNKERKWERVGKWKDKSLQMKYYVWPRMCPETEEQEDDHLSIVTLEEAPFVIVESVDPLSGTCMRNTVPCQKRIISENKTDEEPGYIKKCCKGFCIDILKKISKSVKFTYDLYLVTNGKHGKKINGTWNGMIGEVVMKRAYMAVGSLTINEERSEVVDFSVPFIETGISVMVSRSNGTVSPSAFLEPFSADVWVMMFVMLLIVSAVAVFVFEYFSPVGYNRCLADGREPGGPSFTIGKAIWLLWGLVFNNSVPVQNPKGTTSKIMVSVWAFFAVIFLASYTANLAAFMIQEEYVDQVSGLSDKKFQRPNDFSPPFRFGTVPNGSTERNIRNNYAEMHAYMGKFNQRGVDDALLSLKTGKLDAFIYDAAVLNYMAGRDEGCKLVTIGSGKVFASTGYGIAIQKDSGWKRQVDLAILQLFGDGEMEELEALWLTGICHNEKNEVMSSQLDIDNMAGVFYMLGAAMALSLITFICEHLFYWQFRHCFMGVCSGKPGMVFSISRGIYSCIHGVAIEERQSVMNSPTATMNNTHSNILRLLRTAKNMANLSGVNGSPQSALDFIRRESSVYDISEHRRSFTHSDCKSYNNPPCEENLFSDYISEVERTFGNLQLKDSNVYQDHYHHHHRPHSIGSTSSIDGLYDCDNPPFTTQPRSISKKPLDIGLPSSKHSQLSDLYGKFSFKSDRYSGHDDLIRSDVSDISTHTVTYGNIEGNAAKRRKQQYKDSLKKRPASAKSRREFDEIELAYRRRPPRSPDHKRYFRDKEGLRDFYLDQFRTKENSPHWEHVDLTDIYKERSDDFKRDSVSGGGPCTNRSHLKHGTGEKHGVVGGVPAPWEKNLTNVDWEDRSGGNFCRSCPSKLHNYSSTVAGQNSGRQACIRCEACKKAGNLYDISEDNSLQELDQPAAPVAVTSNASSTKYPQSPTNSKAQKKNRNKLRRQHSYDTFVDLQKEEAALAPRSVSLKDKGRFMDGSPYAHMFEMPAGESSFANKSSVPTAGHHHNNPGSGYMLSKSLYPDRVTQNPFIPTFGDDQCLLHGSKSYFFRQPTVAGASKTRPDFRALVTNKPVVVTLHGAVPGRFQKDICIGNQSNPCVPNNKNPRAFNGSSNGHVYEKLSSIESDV

NMDA receptor [2] = assay type: binding, rat
[3] = read-out: IC50, inhibition of spermine-enhanced [3H]MK-801 binding

Compound | % Sti (NMDA receptor [1]) [%] | % Inh (NMDA receptor [2]) [%] | other results
GEgSLQgNQgLJRgKSN [Ser4-Con-G] | 0 | 0 | –
CC[C@H](C)[C@H](NC(=O)[C@H](CC(C)C)NC(=O)[C@H](C)NC(=O)[C@H](CCC(N)=O)NC(=O)[C@H](CC(N)=O)NC(=O)[C@H](CC(C(=O)O)C(=O)O)NC(=O)[C@H](CCC(N)=O)NC(=O)[C@H](CC(C)C)NC(=O)[C@H](CC(C(=O)O)C(=O)O)NC(=O)[C@H](CC(C(=O)O)C(=O)O)NC(=O)[C@H](CCC(=O)O)NC(=O)CN)C(=O)N[C@@H](CCCNC(=N)N)C(=O)N[C@@H](CC(C(=O)O)C(=O)O)C(=O)N[C@@H](CCCCN)C(=O)N[C@@H](CO)C(=O)N[C@@H](CC(N)=O)C(N)=O [Ala10-Con-G, GEggLQgNQALIRgKSN] | – | 100 | Emax (NMDA receptor [1]; read-out: % Sti): 0%; IC50 (NMDA receptor [2]; read-out: Spermine IC): 1100 ± 300 nM
CC[C@H](C)[C@H](NC(=O)[C@H](CCC(N)=O)NC(=O)[C@H](CO)NC(=O)[C@@H](NC(=O)[C@H](CC(N)=O)NC(=O)[C@H](CO)NC(=O)[C@H](CCC(N)=O)NC(=O)[C@H](CC(C)C)NC(=O)[C@H](CC(C(=O)O)C(=O)O)NC(=O)[C@H](CC(C(=O)O)C(=O)O)NC(=O)[C@H](CCC(=O)O)NC(=O)CN)C(C)C)C(=O)N[C@@H](CCCNC(=N)N)C(=O)N[C@@H](C)C(=O)N[C@@H](CCCCN)C(=O)N[C@@H](CO)C(=O)N[C@@H](CC(N)=O)C(N)=O [310 helix ConG] (HELM PEPTIDE1{G.E.[O=C(O)C(C[C@H](N[*:1])C(=O)[*:2])C(=O)O].[O=C(O)C(C[C@H](N[*:1])C(=O)[*:2])C(=O)O].L.Q.S.N.V.S.Q.I.R.A.K.S.N.[am]}$$$$V2.0) | – | 25 | Emax (NMDA receptor [1]; read-out: % Sti): 0%; IC50 (NMDA receptor [2]; read-out: Spermine IC): 20000 nM
GEYgLQgNQgLIRgKSN [Tyr3-Con-G] | 0 | 0 | –
GEggL-AAA-gKSN (GEXXLAAAXKSN; gamma-carboxyglutamate residues) [ConG(1-5)AAAA(14-17)] | 0 | – | –
Y(p)-GEggLQgNQgLIRgKSN (YGEXXLQXNQXLIRXKSN; phosphotyrosine) [Tyr(p)^o-Con-G] | 0 | 0 | –
GEggL-GG-gKSN (GEXXLGGXKSN; gamma-carboxyglutamate residues) [ConG(1-5)GG(14-17)] | 0 | – | –
QELIREKSN [Glul0,14-Con-G(9-17)] | 0 | 0 | –
CC[C@H](C)[C@H](NC(=O)[C@H](CC(C)C)NC(=O)[C@H](COP(=O)(O)O)NC(=O)[C@H](CCC(N)=O)NC(=O)[C@H](CC(N)=O)NC(=O)[C@H](CC(C(=O)O)C(=O)O)NC(=O)[C@H](CCC(N)=O)NC(=O)[C@H](CC(C)C)NC(=O)[C@H](CC(C(=O)O)C(=O)O)NC(=O)[C@H](CC(C(=O)O)C(=O)O)NC(=O)[C@H](CCC(=O)O)NC(=O)CN)C(=O)N[C@@H](CCCNC(=N)N)C(=O)N[C@@H](CC(C(=O)O)C(=O)O)C(=O)N[C@@H](CCCCN)C(=O)N[C@@H](CO)C(=O)N[C@@H](CC(N)=O)C(N)=O [Ser(p)10-Con-G, GEggLQgNQS(p)LIRgKSN] | – | 100 | % Sti (NMDA receptor [1]; forebrain membranes): 0%; IC50 (NMDA receptor [2]; [3]): 560 ± 200 nM
GEggL-BB-gKSN [ConG(1-5)BB(14-17)] | 0 | – | –
CC[C@H](C)[C@H](NC(=O)[C@H](CC(C)C)NC(=O)[C@@H](CCC(=O)O)NC(=O)[C@H](CCC(N)=O)NC(=O)[C@H](CC(N)=O)NC(=O)[C@@H](CCC(=O)O)NC(=O)[C@H](CCC(N)=O)NC(=O)[C@H](CC(C)C)NC(=O)[C@@H](CCC(=O)O)NC(=O)[C@@H](CCC(=O)O)NC(=O)[C@@H](CCC(=O)O)NC(=O)CN)C(=O)N[C@@H](CCCNC(=N)N)C(=O)N[C@H](CCC(=O)O)C(=O)N[C@@H](CCCCN)C(=O)N[C@@H](CO)C(=O)N[C@@H](CC(N)=O)C(N)=O [D-Glu3,4,7,10,14-Con-G, GdEdEdELQdENQdELIRdEKSN] | – | 0 | stimulation of [3H]MK-801 binding in the absence of spermine (NMDA receptor [1]): stimulated; Emax (NMDA receptor [1]; read-out: % Sti): 30%; inhibition of spermine-induced [3H]MK-801 binding (NMDA receptor [2]): no inhibition
GEggLQ-AAAAAAA-gKSN (GE[Gla′][Gla′]LQAAAAAAA[Gla′]KSN) [ConG(1-6)A7(14-17)] | 0 | – | –
Y-GEggLQgNQgLIRgKSN [Tyr^o-Con-G] | 0 | 0 | –
GEgS(p)LQgNQgLIRgKSN (GEXSLQXNQXLIRXKSN; phosphoserine) [Ser(p)4-Con-G] | 0 | 0 | –
CC[C@H](C)[C@H](NC(=O)[C@H](CC(C)C)NC(=O)[C@H](CC(C(=O)O)C(=O)O)NC(=O)[C@H](CCC(N)=O)NC(=O)[C@H](CC(N)=O)NC(=O)[C@H](CC(C(=O)O)C(=O)O)NC(=O)[C@H](CCC(N)=O)NC(=O)[C@H](CC(C)C)NC(=O)[C@H](CC(C(=O)O)C(=O)O)NC(=O)[C@H](CC(C(=O)O)C(=O)O)NC(=O)[C@H](CCC(=O)O)NC(=O)CN)C(=O)N[C@@H](CCCNC(=N)N)C(=O)N[C@@H](COP(=O)(O)O)C(=O)N[C@@H](CCCCN)C(=O)N[C@@H](CO)C(=O)N[C@@H](CC(N)=O)C(N)=O [Ser(p)14-Con-G, GEggLQgNQgLIRS(p)KSN] | – | 31 ± 0.5 | % Sti (NMDA receptor [1]; forebrain membranes): 0%; inhibition of [3H]MK-801 binding produced by maximally effective spermine (NMDA receptor [2]): 31%; IC50 (NMDA receptor [2]; [3]): 1120 ± 50 nM
RSgNK (RS[Gla′]NK) [scrambled Con-G] | – | – | activity in [3H]MK-801 binding (spanning cell of Table II) (NMDA receptor [1]): inactive
IAEASN [Ala13,15, Glul4-Con-G(12-17)] | – | – | activity in [3H]MK-801 binding (spanning cell of Table II) (NMDA receptor [1]): inactive

Compound | % Sti (NMDA receptor [1]) [%] | % Inh (NMDA receptor [2]) [%] | other results
IREASN [Glu 14, Alal5-Con-G(12-17)] | – | – | activity in [3H]MK-801 binding (spanning cell of Table II) (NMDA receptor [1]): inactive
F(pC1)-GEggLQgNQgLIRgKSN (FGEXXLQXNQXLIRXKSN; N-terminal p-chloro-Phe; gamma-carboxyglutamate residues) [Phe(pCl)^o-Con-G] | 0 | 0 | –
GEggL-cyclic (GEXXL; cyclic; gamma-carboxyglutamate residues) [Cyclic ConG(1-5)] | – | – | activity in [3H]MK-801 binding (spanning cell of Table II) (NMDA receptor [1]): inactive
CC[C@H](C)[C@H](NC(=O)[C@H](CC(C)C)NC(=O)[C@H](CC(C(=O)O)C(=O)O)NC(=O)[C@H](CCC(N)=O)NC(=O)[C@H](CC(N)=O)NC(=O)[C@H](Cc1cc(I)c(O)c(I)c1)NC(=O)[C@H](CCC(N)=O)NC(=O)[C@H](CC(C)C)NC(=O)[C@H](CC(C(=O)O)C(=O)O)NC(=O)[C@H](CC(C(=O)O)C(=O)O)NC(=O)[C@H](CCC(=O)O)NC(=O)CN)C(=O)N[C@@H](CCCNC(=N)N)C(=O)N[C@@H](CC(C(=O)O)C(=O)O)C(=O)N[C@@H](CCCCN)C(=O)N[C@@H](CO)C(=O)N[C@@H](CC(N)=O)C(N)=O [di-iodo-Tyr7-Con-G, GEggLQY(JI)NQgLIRgKSN] | – | 100 | Emax (NMDA receptor [1]; read-out: % Sti): 0%; IC50 (NMDA receptor [2]; read-out: Spermine IC): 500 nM
GEggL-AA-gKSN (GEXXLAAXKSN; gamma-carboxyglutamate residues) [ConG(1-5)AA(14-17)] | 0 | – | –
EEELQENQELIREKSN-NH2 [Glu3,4,7,10-Con-G(2-17)] | – | 70 | Emax (NMDA receptor [1]; read-out: % STI): 33%; Emax (NMDA receptor [1]; read-out: % Sti): 33%; % INH (NMDA receptor [2]): 70%; IC50 (NMDA receptor [2]; read-out: IC50): 5400 nM; IC50 (NMDA receptor [2]; read-out: Spermine IC): 5400 nM
GEggLQ-AAAAA-gKSN (GE[Gla′][Gla′]LQAAAAA[Gla′]KSN) [ConG(1-6)AS(14-17)] | 0 | – | –
Y(oMe)-GEggLQgNQgLIRgKSN (YGEXXLQXNQXLIRXKSN; O-methyl tyrosine) [Tyr(oMe)^o-Con-G] | 0 | 0 | –
CC[C@H](C)[C@H](NC(=O)[C@H](CC(C)C)NC(=O)[C@H](CC(C(=O)O)C(=O)O)NC(=O)[C@H](CCC(N)=O)NC(=O)[C@H](CC(N)=O)NC(=O)[C@H](CC(C(=O)O)C(=O)O)NC(=O)[C@H](CCC(N)=O)NC(=O)[C@H](CC(C)C)NC(=O)[C@H](CC(C(=O)O)C(=O)O)NC(=O)[C@H](CC(C(=O)O)C(=O)O)NC(=O)[C@H](CCC(=O)O)NC(=O)CNC(=O)[C@@H](N)CC(=O)N[C@@H]1O[C@H](CO)[C@@H](O)[C@H](O)[C@H]1NC(C)=O)C(=O)N[C@@H](CCCNC(=N)N)C(=O)N[C@@H](CC(C(=O)O)C(=O)O)C(=O)N[C@@H](CCCCN)C(=O)N[C@@H](CO)C(=O)N[C@@H](CC(N)=O)C(N)=O [Asn(GlcNAc)^o-Con-G, N(GlcOc)-GEggLQgNQgLIRgKSN] | – | 38 | % Sti (NMDA receptor [1]; forebrain membranes): 0%; IC50 (NMDA receptor [2]; read-out: Spermine IC): 8800 nM
RgKSN (R[Gla′]KSN) [Con-G(13-17)] | – | – | activity in [3H]MK-801 binding (spanning cell of Table II) (NMDA receptor [1]): inactive
NCCCNCCCCNCCCN [Spermine, reference compound] | – | 0 | % Sti (NMDA receptor [1]; forebrain membranes): 100%
CC[C@H](C)[C@H](NC(=O)[C@H](CC(C)C)NC(=O)[C@H](C)NC(=O)[C@H](CC(C)C)NC(=O)[C@H](C)NC(=O)[C@H](C)NC(=O)[C@H](CCC(N)=O)NC(=O)[C@H](CC(C)C)NC(=O)[C@H](CC(C(=O)O)C(=O)O)NC(=O)[C@H](CC(C(=O)O)C(=O)O)NC(=O)[C@H](CCC(=O)O)NC(=O)CN)C(=O)N[C@@H](CCCNC(=N)N)C(=O)N[C@@H](C)C(=O)N[C@@H](CCCCN)C(=O)N[C@@H](CO)C(=O)N[C@@H](CC(N)=O)C(N)=O [alpha helix ConG, GEggLQAALALJRAKSN] (HELM PEPTIDE1{G.E.[O=C(O)C(C[C@H](N[*:1])C(=O)[*:2])C(=O)O].[O=C(O)C(C[C@H](N[*:1])C(=O)[*:2])C(=O)O].L.Q.A.A.L.A.L.I.R.A.K.S.N.[am]}$$$$V2.0) | – | 100 | Emax (NMDA receptor [1]; read-out: % Sti): 0%; IC50 (NMDA receptor [2]; read-out: Spermine IC): 1500 nM
CC[C@H](C)[C@H](N)C(=O)N[C@@H](CCCNC(=N)N)C(=O)N[C@@H](CCC(=O)O)C(=O)N[C@@H](CCCCN)C(=O)N[C@@H](CO)C(=O)N[C@@H](CC(N)=O)C(N)=O [Glul4-Con-G(12-17), IREKSN] | – | 0 | stimulation of [3H]MK-801 binding in the absence of spermine (NMDA receptor [1]): stimulated; Emax (NMDA receptor [1]; read-out: % Sti): 30%; inhibition of spermine-induced [3H]MK-801 binding (NMDA receptor [2]): no inhibition
GEggLQgNQgLIRgKSN-OH [Con-G-OH] | 0 | 0 | activity, inhibitory or stimulatory (NMDA receptor [1]): no activity
QENQELIREKSN [Glu 7,10,14-Con-G (6-17)] | 0 | 0 | –
GEggL-GGGG-gKSN (GEXXLGGGGXKSN; gamma-carboxyglutamate residues) [ConG(1-5)GGGG(14-17)] | 0 | – | –
IAEKSN [Ala13, Glul4-Con-G(12-17)] | – | – | activity in [3H]MK-801 binding (spanning cell of Table II) (NMDA receptor [1]): inactive
